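In this assay, cells in 96-well plates receive the compound at five concentrations for 48 hours. Endpoints are linearly interpolated between the surrounding concentrations. GI50 marks 50% less growth. The concentration for full growth arrest is given as TGI.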
System: OVCAR-3 ovarian
Assay: growth of human tumour cells (NCI), 48 h

| SMILES | GI50 | TGI |
| --- | --- | --- |
| CC1=C[C@H]2c3c(c(O)c(O)c4oc(-c5ccccc5)cc(=O)c34)[C@H](c3cc(O)c(O)c4oc(-c5ccccc5)cc(=O)c34)[C@H]2C(C)(C)C1 | 1.46 µM | 12 µM |
| COc1cc2[nH]c(C(=O)c3cc(OC)c(OC)c(OC)c3)c(N)c2cc1C#CC1CC1 | 1.53 µM | 5.74 µM |
| O=c1cc(NC2CCN(CCCc3ccccc3)CC2)c2cc(Cl)ccc2o1 | 6.6 µM | 19.4 µM |
| O=C1CC2c3ccccc3CCC2c2ccccc21 (configuration not stated) |  | 41.8 µM |
| Nc1nc(F)nc2c1ncn2C1OC(CO)C(O)C1O (configuration not stated) |  | > 100 µM |
| CCn1c(-c2ccc(OC(C)=O)cc2)c(C)c2cc(OC(C)=O)ccc21 |  | 42.1 µM |
| O=c1cccc(C#CC#CC2=CCCCC2)o1 | 6.66 µM | 10.4 µM |
| O=C1Nc2ccc(F)cc2/C1=C/c1ccc[nH]1 | > 18.4 µM | > 25 µM |
| Br[C](Br)(Br)[Hg][c]1ccccc1 | 9.76 µM | 23.3 µM |
| COc1ccc(CC2NCCc3cc(OC)c(OC)cc32)cc1Br (configuration not stated) |  | > 100 µM |

System: HT29 colon
Assay: growth of human tumour cells (NCI), 48 h

| SMILES | GI50 | TGI |
| --- | --- | --- |
| CC1=C[C@H]2c3c(c(O)c(O)c4oc(-c5ccccc5)cc(=O)c34)[C@H](c3cc(O)c(O)c4oc(-c5ccccc5)cc(=O)c34)[C@H]2C(C)(C)C1 | 0.888 µM | > 75 µM |
| COc1cc2[nH]c(C(=O)c3cc(OC)c(OC)c(OC)c3)c(N)c2cc1C#CC1CC1 | 3.38 µM | 28 µM |
| O=c1cc(NC2CCN(CCCc3ccccc3)CC2)c2cc(Cl)ccc2o1 | 4.6 µM | 19.5 µM |
| O=C1CC2c3ccccc3CCC2c2ccccc21 (configuration not stated) |  | 30.6 µM |
| Nc1nc(F)nc2c1ncn2C1OC(CO)C(O)C1O (configuration not stated) |  | > 100 µM |
| CCn1c(-c2ccc(OC(C)=O)cc2)c(C)c2cc(OC(C)=O)ccc21 |  | 89.6 µM |
| O=c1cccc(C#CC#CC2=CCCCC2)o1 | 14 µM | > 100 µM |
| O=C1Nc2ccc(F)cc2/C1=C/c1ccc[nH]1 | > 25 µM | > 25 µM |
| Br[C](Br)(Br)[Hg][c]1ccccc1 | 11.1 µM | 25.5 µM |
| COc1ccc(CC2NCCc3cc(OC)c(OC)cc32)cc1Br (configuration not stated) |  | 57.9 µM |

System: HS 578T breast
Assay: growth of human tumour cells (NCI), 48 h

| SMILES | GI50 | TGI |
| --- | --- | --- |
| CC1=C[C@H]2c3c(c(O)c(O)c4oc(-c5ccccc5)cc(=O)c34)[C@H](c3cc(O)c(O)c4oc(-c5ccccc5)cc(=O)c34)[C@H]2C(C)(C)C1 | 0.412 µM | 10.2 µM |
| COc1cc2[nH]c(C(=O)c3cc(OC)c(OC)c(OC)c3)c(N)c2cc1C#CC1CC1 | 3.75 µM | > 100 µM |
| O=c1cc(NC2CCN(CCCc3ccccc3)CC2)c2cc(Cl)ccc2o1 | 15.1 µM | 36 µM |
| O=C1CC2c3ccccc3CCC2c2ccccc21 (configuration not stated) |  | 53.4 µM |
| Nc1nc(F)nc2c1ncn2C1OC(CO)C(O)C1O (configuration not stated) |  | > 100 µM |
| CCn1c(-c2ccc(OC(C)=O)cc2)c(C)c2cc(OC(C)=O)ccc21 |  | 54.4 µM |
| O=c1cccc(C#CC#CC2=CCCCC2)o1 | 5.24 µM | 24.3 µM |
| O=C1Nc2ccc(F)cc2/C1=C/c1ccc[nH]1 | > 25 µM | > 25 µM |
| Br[C](Br)(Br)[Hg][c]1ccccc1 | 23.2 µM | 66.2 µM |
| COc1ccc(CC2NCCc3cc(OC)c(OC)cc32)cc1Br (configuration not stated) |  | > 100 µM |

System: IGROV1 ovarian
Assay: growth of human tumour cells (NCI), 48 h

| SMILES | GI50 | TGI |
| --- | --- | --- |
| CC1=C[C@H]2c3c(c(O)c(O)c4oc(-c5ccccc5)cc(=O)c34)[C@H](c3cc(O)c(O)c4oc(-c5ccccc5)cc(=O)c34)[C@H]2C(C)(C)C1 | 0.486 µM | 7.51 µM |
| COc1cc2[nH]c(C(=O)c3cc(OC)c(OC)c(OC)c3)c(N)c2cc1C#CC1CC1 | 6.01 µM | > 100 µM |
| O=c1cc(NC2CCN(CCCc3ccccc3)CC2)c2cc(Cl)ccc2o1 | 11.3 µM | 26.6 µM |
| O=C1CC2c3ccccc3CCC2c2ccccc21 (configuration not stated) |  | 86.6 µM |
| Nc1nc(F)nc2c1ncn2C1OC(CO)C(O)C1O (configuration not stated) | 74.1 µM | > 100 µM |
| CCn1c(-c2ccc(OC(C)=O)cc2)c(C)c2cc(OC(C)=O)ccc21 |  | > 100 µM |
| O=c1cccc(C#CC#CC2=CCCCC2)o1 | 5.4 µM | 18.1 µM |
| O=C1Nc2ccc(F)cc2/C1=C/c1ccc[nH]1 | 13.4 µM | > 25 µM |
| Br[C](Br)(Br)[Hg][c]1ccccc1 | 13.8 µM | 27.6 µM |
| COc1ccc(CC2NCCc3cc(OC)c(OC)cc32)cc1Br (configuration not stated) |  | > 100 µM |

System: NCI-H460 lung
Assay: growth of human tumour cells (NCI), 48 h

| SMILES | GI50 | TGI |
| --- | --- | --- |
| CC1=C[C@H]2c3c(c(O)c(O)c4oc(-c5ccccc5)cc(=O)c34)[C@H](c3cc(O)c(O)c4oc(-c5ccccc5)cc(=O)c34)[C@H]2C(C)(C)C1 | 0.275 µM | 1.83 µM |
| COc1cc2[nH]c(C(=O)c3cc(OC)c(OC)c(OC)c3)c(N)c2cc1C#CC1CC1 | 3.55 µM | > 100 µM |
| O=c1cc(NC2CCN(CCCc3ccccc3)CC2)c2cc(Cl)ccc2o1 | 15.7 µM | 29.6 µM |
| O=C1CC2c3ccccc3CCC2c2ccccc21 (configuration not stated) |  | 69.2 µM |
| Nc1nc(F)nc2c1ncn2C1OC(CO)C(O)C1O (configuration not stated) | 43.2 µM | > 100 µM |
| CCn1c(-c2ccc(OC(C)=O)cc2)c(C)c2cc(OC(C)=O)ccc21 |  | 56.4 µM |
| O=c1cccc(C#CC#CC2=CCCCC2)o1 | 10.6 µM | 21.8 µM |
| O=C1Nc2ccc(F)cc2/C1=C/c1ccc[nH]1 | > 25 µM | > 25 µM |
| Br[C](Br)(Br)[Hg][c]1ccccc1 | 16.8 µM | 37.9 µM |
| COc1ccc(CC2NCCc3cc(OC)c(OC)cc32)cc1Br (configuration not stated) |  | > 71.4 µM |
